Data: publication PMC8879702, “Discovery of Small Molecule Activators of Chemokine Receptor CXCR4 That Improve Diabetic Wound Healing” (International Journal of Molecular Sciences, 2022)

What was measured:
Type in all cases: cell-based
CXCR4 receptor [1] = target: T1, CXCR4 receptor (Homo sapiens, UniProt P61073); test: primary 1536 w β-arrestin recruitment assay (CXCR4-bla U2OS cells, SDF-1α from R&D systems); parameters: host or cells: Tango CXCR4-bla U2OS cells; conditions: for Emax: U2OS
Procedure: In our effort to identify CXCR4 activators from the NIH Molecular Library Small Molecule Repository (MLSMR), we developed a primary screening assay to measure β-arrestin recruitment to the activated G-protein coupled receptor (GPCR) by a Florescence Resonance Energy Transfer (FRET) in U2OS cells, overexpressing the CXCR4 receptor engineered with a β-lactamase (bla) reporter system. CXCR4-bla cells plated in 1536 w were stimulated in the presence of 10 µM compound concentration. […] Using this approach, we successfully screened the NIH MLSMR of 370,620 compounds (Figure 1A,B) and identified 303 hits (hit rate = 0.08%). […] These compounds were graded according to activity and structure, resulting in 86 compounds that met the criteria as potential CXCR4 agonists for further characterization (Figure 1B). The workflow for high-throughput screening and this study is illustrated in Figure 1B.
Chemical stability, synthetic tractability, solubility and complete dose response and potency criteria led to the prioritization of the 5-aryl-2-cyclopropyl oxazole scaffold, represented by primary hit Compound 2 (Table 1). The early structure–activity relationship was established around the 5-aryl-2-cyclopropyl oxazole core with commercially available analogs with diverse substituents in the sulfonanilide ring of the scaffold. […] Keeping the 2-OMe substituent constant, we screened a small set of electron withdrawing and electron rich substituents at the 5-position of the anilide ring (entries 16–19). […] The analytical data for UCUF-728 is shown in Supplemental Figures S1–S4.

CXCR4 receptor [2] = target: T1, CXCR4 receptor; test: cAMP signaling assay, forskolin-induced, PathHunter CHO-K1 CXCR4 cells
Procedure: The CXCR4 receptor is a G-protein coupled receptor (GPCR) coupled to the Gi class, whose primary role is inhibition of adenylate cyclase. We tested the ability of UCUF-728 to induce a Gi-mediated cAMP-inhibitory cellular response. […] (Figure 2B).
Forskolin at final concentration of 0.5 mM was added to all wells using the TECAN dispenser. […] of PathHunter CHO-K1 CXCR4 cells (DiscoverX, Fremont, CA, USA) were added to compounds at 3000 cells/well, centrifuged at 1000 rpm for 30 s and incubated for 30 min at room temperature. DMSO (Sigma Aldrich, St. Louis, MO, USA) was normalized to 0.5%. […] of 4X Eu-cAMP tracer working solution were added to all wells, followed by addition of 5 μL of 4X Ulight-anti-cAMP working solution to all wells. Plates were centrifuged at 1000 rpm for 1 min and incubated for 1 h at room temperature, then read using CLARIOstar Plus (BMG LABTECH Inc., Cary, NC, USA) Lance CAMP protocol.

CEM-CCRF cells = test: 96 wells transwell migration assay in CEM human lymphoblast cells
From the text: Thus, to confirm CXCR4 functional activity, we evaluated UCUF-728 in a 96 wells transwell migration assay in CEM human lymphoblast cells. […] (Supplemental Figure S7). From the analog structure–activity relationship studies and characterization studies in the chemotaxis assay, cAMP signaling and CXCR4 binding assay, we identified UCUF-728 as a potent and functionally selective CXCR4 receptor modulator.
CEM-CCRF (ATCC CCL-119) were suspended in RPMI 1640 (Corning; 10-040-CV) at 5.0 × 10^5 cells/mL and allowed to incubate in cell culture incubator at 37 °C with 5% CO2 for one hour. […] Following 1 h cell incubation and compound dispensing, 150 μL of RPMI 1640 supplemented with 2% Fetal Bovine Serum was added to each well of the compound receiver tray, and 50 μL of 5 × 10^5 cells/mL cell suspension in RPMI were added to each well of the top filter plate. Plates were reassembled and placed in a cell culture incubator at 37 °C with 5% CO2 for three hours. After incubation, Multi-Screen plate was disassembled and 100 μL of solution was collected from compound receiver tray and transferred to 96 well luminescent plate and an equal volume of ATPLite 1step luminescence reagent (Perkin Elmer, Waltham, MA, USA) was added to each well. Luminescence was measured using the CLARIOstar Plus (BMG LABTECH Inc., Cary, NC, USA).

T1 sequence (P61073 whole entry): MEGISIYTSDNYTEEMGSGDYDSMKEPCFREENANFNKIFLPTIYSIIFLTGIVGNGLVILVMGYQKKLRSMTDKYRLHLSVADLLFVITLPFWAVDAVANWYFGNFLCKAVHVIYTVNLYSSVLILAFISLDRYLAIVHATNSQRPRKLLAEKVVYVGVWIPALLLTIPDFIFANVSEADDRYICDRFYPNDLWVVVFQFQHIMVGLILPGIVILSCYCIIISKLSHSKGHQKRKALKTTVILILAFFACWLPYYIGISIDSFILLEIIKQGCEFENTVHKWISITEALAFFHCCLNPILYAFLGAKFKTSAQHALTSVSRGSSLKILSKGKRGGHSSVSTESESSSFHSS

Compound	EC50 (CXCR4 receptor [1])	Emax (CXCR4 receptor [1])	also measured
CCc1ccccc1NS(=O)(=O)c1ccc(-c2cnc(C3CC3)o2)cc1 [Compound 3]	2.6 µM	38%	
COc1ccccc1NS(=O)(=O)c1ccc(-c2cnc(C3CC3)o2)cc1 [Compound 4]	6.1 µM	45%	
CCOc1ccc(NS(=O)(=O)c2ccc(-c3cnc(C4CC4)o3)cc2)cc1 [Compound 9]	44.3 µM	38%	
Cc1ccccc1NS(=O)(=O)c1ccc(-c2cnc(C3CC3)o2)cc1 [Compound 2]	5.9 µM	27%	
Cc1ccc(NS(=O)(=O)c2ccc(-c3cnc(C4CC4)o3)cc2)c(C)c1 [Compound 12]	3.4 µM	38%	
O=S(=O)(Nc1ccccc1Cl)c1ccc(-c2cnc(C3CC3)o2)cc1 [Compound 6]	22 µM	35%	
COc1cccc(NS(=O)(=O)c2ccc(-c3cnc(C4CC4)o3)cc2)c1 [Compound 8]	> 80 µM		
SDF-1α			inhibition of forskolin-induced adenylate cyclase (cAMP signaling) (CXCR4 receptor [2]; CHO-K1 CXCR4 overexpressed cells): inhibited forskolin-induced adenylate cyclase; induction of cell migration (CEM-CCRF cells; compound in lower channel, 3 h): induced migration in the typical bell-shaped curve
O=S(=O)(Nc1ccccc1F)c1ccc(-c2cnc(C3CC3)o2)cc1 [Compound 7]	> 80 µM		
Cc1ccc(NS(=O)(=O)c2ccc(-c3cnc(C4CC4)o3)cc2)cc1C [Compound 11]	> 10 µM		
CCOc1ccccc1NS(=O)(=O)c1ccc(-c2cnc(C3CC3)o2)cc1 [Compound 5]	1 µM	46%	
Cc1cccc(NS(=O)(=O)c2ccc(-c3cnc(C4CC4)o3)cc2)c1C [Compound 10]	1.9 µM	40%	
O=S(=O)(Nc1ccccc1)c1ccc(-c2cnc(C3CC3)o2)cc1 [Compound 1]	> 80 µM		
c1cc(CN2CCCNCCNCCCNCC2)ccc1CN1CCCNCCNCCCNCC1 [AMD3100, reference compound]			block of SDF-1α inhibition of forskolin-induced cAMP (CXCR4 receptor [2]; maximal response at 40 nM SDF-1α): dose-dependently blocked; IC50 (CEM-CCRF cells; Homo sapiens, normalized to media only and 6nM SDF-1a, read-out: logIC50 inhibition of migration (converted)): 0.0316 µM

Further lines, with some results ahead:

EC50 (CXCR4 receptor [1])	Emax (CXCR4 receptor [1])	Compound	also measured
1.65 µM	47%	COc1ccc(Cl)cc1NS(=O)(=O)c1ccc(-c2cnc(C3CC3)o2)cc1 [Compound 16]	
5.6 µM	48%	COc1cc(NS(=O)(=O)c2ccc(-c3cnc(C4CC4)o3)cc2)cc(OC)c1 [Compound 21]	
0.9 µM	48%	COc1ccc(C)cc1NS(=O)(=O)c1ccc(-c2cnc(C3CC3)o2)cc1 [Compound 18]	
3.1 µM	39%	Cc1cc(C)cc(NS(=O)(=O)c2ccc(-c3cnc(C4CC4)o3)cc2)c1 [Compound 15]	
> 80 µM		COc1ccc(NS(=O)(=O)c2ccc(-c3cnc(C4CC4)o3)cc2)cc1OC [Compound 20]	
0.6 µM	45%	Cc1cccc(C)c1NS(=O)(=O)c1ccc(-c2cnc(C3CC3)o2)cc1 [Compound 14]	
7.3 µM	42%	COc1ccc(F)cc1NS(=O)(=O)c1ccc(-c2cnc(C3CC3)o2)cc1 [Compound 17]	
0.7 µM	42%	Cc1ccc(C)c(NS(=O)(=O)c2ccc(-c3cnc(C4CC4)o3)cc2)c1 [Compound 13]	
